Patent US12161869B2, “Treatment of disorders associated with inflammation” (Galvani Bioelectronics Limited, priority 2017, dated 2024)
Structures can show the parent of a compound that is named as a salt.

System: SpA BF changes during SpN stimulation
Assay: Local lidocaine block of SpN stimulation-induced changes in splenic artery blood flow
Format: in vivo, pig
Conditions: 2% lidocaine hydrochloride solution applied locally around the implanted SpN cuff
Method: On the experimental day, the animal was sedated with ketamine (1.5 mg/kg) and midazolam (0.5 mg/kg) administered by intramuscular injection. An intravenous catheter was placed in one auricular vein, and anesthesia was induced by propofol (2 mg/Kg) administered intravenously. An endotracheal tube was placed, and anesthesia was maintained with sevoflurane inhalant combined with continuous rate infusion (CRI) of fentanyl (0.2 μg/Kg/min).
The surgical approach to SpN cuff implantation was as follows. The thoracolumbar junction was supported and slightly elevated using a sand bag. After appropriate surgical preparation (clipping and aseptic scrub with chlorhexidine gluconate and alcohol), the left flank was aseptically draped exposing a 20×25 cm area centered on the second to last rib. A 15 cm skin incision was made in the second to last intercostal space using monopolar electrocautery. The incision was continued through the subcutaneous tissues and intercostal musculature until the peritoneum was exposed. […]
By slight rotation of the splenic visceral base towards the operator, and placing gentle ventral traction on the spleen, the gastrosplenic ligament at the splenic hilum was incised using Metzembaum scissors, exposing the SpA. […] SpA blood flow readings were tested and finally the rib retractors were partially closed and the exposed incision covered with saline-soaked gauze sponges. […]

With `CCN(CC)CC(=O)Nc1c(C)cccc1C` [Lidocaine, lidocaine hydrochloride] the “effect on changes in SpA BF caused by SpN stimulation” value was “able to block the changes in SpA BF”.
